We go through 6 molecules from ChEMBL document CHEMBL1152372, “A stabilized demethoxyviridin derivative inhibits PI3 kinase” (Bioorg Med Chem Lett, 2009).

Structures are written as SMILES.

Test system in the first series: not listed separately
Kind of series: Stability in PBS at pH 7.4 assessed as half life at 1.5 mM by HPLC. The settings on record: buffer, pH 7.4, 1500 µM. Type of series: physicochemical.
As to `C[C@]12C(=C(O)C(=O)c3c1ccc1c3CCC1=O)/C(=C/NCC(=O)O)C(=O)C[C@H]2OC(=O)CCC(=O)O`, the t1/2 was determined as 3.63 h.

Take `C[C@@]12c3ccc4c(c3C(=O)c3occ(c31)C(=O)C[C@H]2OC(=O)CCC(=O)O)CCC4=O`: the t1/2 stood at 2 h.

`C[C@@]12c3ccc4c(c3C(=O)c3occ(c31)C(=O)C[C@H]2O)CCC4=O` [DEMETHOXYVIRIDIN]: the t1/2 came to 0.433 h.

As for `COC[C@H]1OC(=O)c2coc3c2[C@@]1(C)C1=C(C3=O)[C@@H]2CCC(=O)[C@@]2(C)C[C@H]1OC(C)=O` [WORTMANNIN], the t1/2 turned out to be 57.83 h.

Test system in the next series: not listed separately
Kind of series: Stability in PBS at pH 7.4 assessed as half life at 1.5 mM by HPLC in presence of glycine. Type of series: physicochemical. The note with it: buffer, pH 7.4, 1500 µM.
In the case of `C[C@@]12c3ccc4c(c3C(=O)c3occ(c31)C(=O)C[C@H]2OC(=O)CCC(=O)O)CCC4=O`, the t1/2 was 13.5 min.

Consider `C[C@@]12c3ccc4c(c3C(=O)c3occ(c31)C(=O)C[C@H]2O)CCC4=O` [DEMETHOXYVIRIDIN], for which the t1/2 came out at 0.99 min.

For the molecule `COC[C@H]1OC(=O)c2coc3c2[C@@]1(C)C1=C(C3=O)[C@@H]2CCC(=O)[C@@]2(C)C[C@H]1OC(C)=O` [WORTMANNIN], the t1/2 stood at 4.1 min.

Test system in a further series: not listed separately
The series can be described thus: Stability in RPMI culture media assessed as half life at 1.5 mM by HPLC. It counts as physicochemical. The note with it: 1500 µM.
On to `C[C@]12C(=C(O)C(=O)c3c1ccc1c3CCC1=O)/C(=C/NCC(=O)O)C(=O)C[C@H]2OC(=O)CCC(=O)O`, for which the t1/2 turned out to be 64 min.

As to `C[C@@]12c3ccc4c(c3C(=O)c3occ(c31)C(=O)C[C@H]2OC(=O)CCC(=O)O)CCC4=O`, the t1/2 was 0.43 min.

Consider `C[C@@]12c3ccc4c(c3C(=O)c3occ(c31)C(=O)C[C@H]2O)CCC4=O` [DEMETHOXYVIRIDIN], for which the t1/2 is on record as 0.47 min.

As for `COC[C@H]1OC(=O)c2coc3c2[C@@]1(C)C1=C(C3=O)[C@@H]2CCC(=O)[C@@]2(C)C[C@H]1OC(C)=O` [WORTMANNIN], the t1/2 was found to be 0.99 min.

Test system in a further series: not listed separately
Kind of series: Stability in PBS at pH 7.4 assessed as half life at 1.5 mM by HPLC in presence of proline. It counts as physicochemical. The settings on record: buffer, pH 7.4, 1500 µM.
Regarding `C[C@]12C(=C(O)C(=O)c3c1ccc1c3CCC1=O)/C(=C/NCC(=O)O)C(=O)C[C@H]2OC(=O)CCC(=O)O`, the t1/2 stood at 126 min.

On to `C[C@@]12c3ccc4c(c3C(=O)c3occ(c31)C(=O)C[C@H]2OC(=O)CCC(=O)O)CCC4=O`, for which the t1/2 amounted to 108 min.

As to `C[C@@]12c3ccc4c(c3C(=O)c3occ(c31)C(=O)C[C@H]2O)CCC4=O` [DEMETHOXYVIRIDIN], the t1/2 was 0.59 min.

Regarding `COC[C@H]1OC(=O)c2coc3c2[C@@]1(C)C1=C(C3=O)[C@@H]2CCC(=O)[C@@]2(C)C[C@H]1OC(C)=O` [WORTMANNIN], the t1/2 is listed as 1.5 min.

Test system in another series: not listed separately
Kind of series: Stability in PBS at pH 7.4 assessed as half life at 1.5 mM by HPLC in presence of NAc-lysine. The settings on record: buffer, pH 7.4, 1500 µM. Type of series: physicochemical.
`C[C@]12C(=C(O)C(=O)c3c1ccc1c3CCC1=O)/C(=C/NCC(=O)O)C(=O)C[C@H]2OC(=O)CCC(=O)O`: the t1/2 is 94 min.

For the molecule `C[C@@]12c3ccc4c(c3C(=O)c3occ(c31)C(=O)C[C@H]2OC(=O)CCC(=O)O)CCC4=O`, the t1/2 stood at 23 min.

Take `C[C@@]12c3ccc4c(c3C(=O)c3occ(c31)C(=O)C[C@H]2O)CCC4=O` [DEMETHOXYVIRIDIN]: the t1/2 amounted to 0.61 min.

`COC[C@H]1OC(=O)c2coc3c2[C@@]1(C)C1=C(C3=O)[C@@H]2CCC(=O)[C@@]2(C)C[C@H]1OC(C)=O` [WORTMANNIN]: the t1/2 was found to be 18.4 min.

The next series deals with Phosphatidylinositol 4,5-bisphosphate 3-kinase catalytic subunit alpha isoform (Homo sapiens, UniProt P42336). The series can be described thus: Inhibition of PI3 kinase.
Phosphatidylinositol 4,5-bisphosphate 3-kinase catalytic subunit alpha isoform, sequence (P42336 whole entry, canonical isoform): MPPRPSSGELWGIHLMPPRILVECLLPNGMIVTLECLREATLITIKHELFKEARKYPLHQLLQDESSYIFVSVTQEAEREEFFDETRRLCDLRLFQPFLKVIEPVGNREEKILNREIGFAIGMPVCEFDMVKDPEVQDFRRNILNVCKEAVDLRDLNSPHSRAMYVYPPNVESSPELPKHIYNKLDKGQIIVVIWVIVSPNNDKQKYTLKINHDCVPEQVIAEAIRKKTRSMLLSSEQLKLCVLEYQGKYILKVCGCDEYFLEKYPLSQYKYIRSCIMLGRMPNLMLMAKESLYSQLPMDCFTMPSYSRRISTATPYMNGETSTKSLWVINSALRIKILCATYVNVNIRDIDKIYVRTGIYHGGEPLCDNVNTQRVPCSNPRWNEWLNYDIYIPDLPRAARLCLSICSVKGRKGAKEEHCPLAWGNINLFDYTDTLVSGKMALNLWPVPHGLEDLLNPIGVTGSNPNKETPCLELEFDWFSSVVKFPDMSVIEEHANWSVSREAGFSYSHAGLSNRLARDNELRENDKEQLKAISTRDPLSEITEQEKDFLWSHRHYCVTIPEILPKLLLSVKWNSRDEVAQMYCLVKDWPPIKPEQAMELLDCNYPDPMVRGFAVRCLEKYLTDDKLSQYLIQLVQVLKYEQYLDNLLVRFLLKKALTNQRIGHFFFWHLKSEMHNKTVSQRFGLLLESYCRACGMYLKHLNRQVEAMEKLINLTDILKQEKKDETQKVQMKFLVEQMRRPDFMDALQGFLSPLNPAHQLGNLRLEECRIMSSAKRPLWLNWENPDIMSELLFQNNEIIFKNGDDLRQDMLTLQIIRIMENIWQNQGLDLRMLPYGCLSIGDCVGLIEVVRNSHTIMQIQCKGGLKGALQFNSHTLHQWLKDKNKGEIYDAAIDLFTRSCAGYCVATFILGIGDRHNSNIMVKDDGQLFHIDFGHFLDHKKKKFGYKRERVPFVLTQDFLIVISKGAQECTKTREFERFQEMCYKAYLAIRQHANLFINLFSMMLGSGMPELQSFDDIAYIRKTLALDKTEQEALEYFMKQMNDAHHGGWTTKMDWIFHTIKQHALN
Conditions: not given
Regarding `COC[C@H]1OC(=O)/C(=C\NCCCCC(NC(C)=O)C(=O)O)C2=C(O)C(=O)C3=C([C@H](OC(C)=O)C[C@]4(C)C(=O)CC[C@@H]34)[C@]21C` (stereo partly drawn), the IC50 (in general, the concentration that gives 50% inhibition) is greater than 1000 nM.

On to `COC[C@H]1OC(=O)/C(=C\N2CCCC2C(=O)O)C2=C(O)C(=O)C3=C([C@H](OC(C)=O)C[C@]4(C)C(=O)CC[C@@H]34)[C@]21C` (stereo partly drawn), for which the IC50 amounted to 68 nM.

`C[C@@]12c3ccc4c(c3C(=O)c3occ(c31)C(=O)C[C@H]2OC(=O)CCC(=O)O)CCC4=O` returned an IC50 of 20 nM.

Molecule `C[C@@]12c3ccc4c(c3C(=O)c3occ(c31)C(=O)C[C@H]2O)CCC4=O` [DEMETHOXYVIRIDIN] returned an IC50 of 1 nM.
